Laboratory results: patent publication US6930203B2, “Gelling agents or thickeners” (Applied NanoSystems B.V., priority 2001, dated 2005)

How the values were obtained:
Format in all cases: physicochemical
[1] = Solvent scope of N,N′-dialkylaldaramides (1%) or N,N′-dialkylpentaramides (1%): gelation/solubility behaviour in solvents; design: key: g = gelation; s = soluble; p = precipitates; c = crystallizes; ns = not soluble; v = viscous; g* = unstable gel, precipitates; cg = crystalline gel; conditions: 1% gelling agent
Excerpt: It will be understood that the use of the present gelling agents or thickeners to prepare a gel or to thicken a composition is also encompassed by the invention. As is well known, gelling behavior of compounds or compositions is highly unpredictable. […] Preferably, the gelling phenomenon is thermo reversible.
(§1) Preferred examples include aromatic and nonaromatic hydrocarbons, alcohols, ethers, esters, aldehydes, alkanoic acids, epoxides, amines, halogenated hydrocarbons, silicon oils, vegetable oils, phosphoric esters, sulfoxides, water and mixtures thereof. In order to obtain a gel, the gelling agent or thickener is preferably mixed with the composition to be transformed to a gel in an amount of between 0.01 and 50 wt. %, based on the weight of the composition. In a preferred embodiment, the mixture of the gelling agent or thickener and the composition is heated to allow for an even better gel formation or thickening. Typically, the heating will involve raising the temperature of the mixture to about 30-175° C. until a clear solution is obtained. In an alternative embodiment, the gelling agent is first dissolved in a polar or apolar solvent and then added to or sprayed into a composition or solvent to be converted into a gel.
Solvent scope of N,N′-dialkylaldaramides (1%) or N,N′-dialkylpentaramides (1%) 1-24 refers to the compounds prepared in Examples 1-23)

[2] = Gelation of N,N′-dialkyladaramides (1%) in mixtures of solvents; design: key: g = gelation; s = soluble; p = precipitates; c = crystallizes; ns = not soluble; v = viscous; g* = unstable gel, precipitates; cg = crystalline gel; conditions: 1% gelling agent
Excerpt: as §1
Gelation of N,N′-dialkyladaramides (1%) in Mixtures of Solvents

[3] = Cold gelation: addition of a solution of the gelling agent (10% in NMP, 0.05 ml) to an organic solution (0.5 ml); design: key: g = gelation; s = soluble; p = precipitates; c = crystallizes; ns = not soluble; v = viscous; g* = unstable gel, precipitates; cg = crystalline gel
Excerpt: as §1
Addition of a solution of the gelling agent (10% in NMP, 0.05 ml) to an organic solution (0.5 ml, “cold gelation”)

[4] = Maximum gelator concentration
Excerpt: Maximum gelator concentration of 5 (C6-Glu-C6) and 15 (C12-Glu-C12)

[5] = Phase diagram, dropping ball method; conditions: in cyclohexane, silicon oil and p-xylene
Procedure: FIG. 1 depicts a phase diagram of 5 (C6-Glu-C6) and 15 (C12-Glu-C12) determined with the dropping ball method.
Phase Diagram of 5 (C6-Glu-C6) and 15 (C12-Glu-C12)) Dropping Ball Method)
The phase diagram of 5 (C6-Glu-C6) and 15 (C12-Glu-C12) was determined (see FIG. 1) by using the dropping ball method (A. Takashi, M. Sakai, T. Kato, Polym. J., 12 (1980) 335-341, F. S. Schoonbeek, J. H. van Esch, R. Hulst, R. M. Kellogg, B. L. Feringa, Chem. Eur. J., 6 (2000) 2633-2643).

Gelation/solubility behaviour in 1,2-dichloroethane ([1]; 1,2-dichloroethane): g
Gelation/solubility behaviour in 2-methoxyethanol ([1]; 2-methoxyethanol): c
Gelation/solubility behaviour in 2-octanol ([1]; 2-octanol): s
Gelation/solubility behaviour in 2-propanol ([1]; 2-propanol): c
Gelation/solubility behaviour in Cyclohexane ([1]; Cyclohexane): g
Gelation/solubility behaviour in Dimethylsulfoxide ([1]; Dimethylsulfoxide): cg
Gelation/solubility behaviour in Ethanol ([1]; Ethanol): cg
Gelation/solubility behaviour in Hexadecane ([1]; Hexadecane): ns
Gelation/solubility behaviour in Toluene ([1]; Toluene): g
Gelation/solubility behaviour in Water ([1]; Water): ns
Gelation/solubility behaviour in methyl benzoic acid ([1]; methyl benzoic acid): g
Gelation/solubility behaviour in methyl laurate ([1]; methyl laurate): g
Gelation/solubility behaviour in n-butylacetate ([1]; n-butylacetate): g
Gelation/solubility behaviour in p-xylene ([1]; p-xylene): g
Gelation/solubility behaviour in silicon oil ([1]; silicon oil): g
Gelation in cyclohexane ([2]; Cyclohexane): g
Gelation in Dioxane ([2]; Dioxane): cg
Gelation in H2O ([2]; H2O): ns
Gelation in cyclohexane/dioxane 1:1 ([2]; cyclohexane/dioxane 1:1): cg
Gelation in dioxane/H2O 1:1 ([2]; dioxane/H2O 1:1): g
Gelation in dioxane/H2O 1:2 ([2]; dioxane/H2O 1:2): ns
Gelation in dioxane/H2O 2:1 ([2]; dioxane/H2O 2:1): cg
Gelation in dioxane/H2O 3:1 ([2]; dioxane/H2O 3:1): cg
Cold gelation in 1,2-dichloroethane ([3]; 0.05 ml added to 0.5 ml 1,2-dichloroethane): c
Cold gelation in Acetone ([3]; 0.05 ml added to 0.5 ml Acetone): cg
Cold gelation in Acetonitril ([3]; 0.05 ml added to 0.5 ml Acetonitril): g
Cold gelation in Chloroform ([3]; 0.05 ml added to 0.5 ml Chloroform): s
Cold gelation in Heptane ([3]; 0.05 ml added to 0.5 ml Heptane): p
Cold gelation in Hexane ([3]; 0.05 ml added to 0.5 ml Hexane): p
Cold gelation in Toluene ([3]; 0.05 ml added to 0.5 ml Toluene): g
Cold gelation in benzaldehyde ([3]; 0.05 ml added to 0.5 ml benzaldehyde): s
Cold gelation in cyclohexane ([3]; 0.05 ml added to 0.5 ml cyclohexane): g
Cold gelation in diethyl ether ([3]; 0.05 ml added to 0.5 ml diethyl ether): g
Cold gelation in ethylacetate ([3]; 0.05 ml added to 0.5 ml ethylacetate): p
Cold gelation in methyl laurate ([3]; 0.05 ml added to 0.5 ml methyl laurate): g
Cold gelation in n-butyl acetate ([3]; 0.05 ml added to 0.5 ml n-butyl acetate): g
Cold gelation in silicon oil ([3]; 0.05 ml added to 0.5 ml silicon oil): g
Cold gelation in tetrahydrofuran ([3]; 0.05 ml added to 0.5 ml tetrahydrofuran): c
Maximum gelator concentration in 1,2-dichloroethane ([4]; 1,2-dichloroethane): <50%
Maximum gelator concentration in Toluene ([4]; Toluene): <50%
Maximum gelator concentration in cyclohexane ([4]; cyclohexane): <5%
Maximum gelator concentration in methyl laurate ([4]; methyl laurate): <5%
Maximum gelator concentration in n-butylacetate ([4]; n-butylacetate): <50%
Maximum gelator concentration in silicon oil (Dow Corning 702) ([4]; silicon oil (Dow Corning 702)): <50%
Correlation between Tm^−1 and the logarithm of the mole fraction [5]: linear correlation
SMILES: O=C(NC1CCCCCCCCCCC1)[C@@H](O)[C@@H](O)[C@H](O)[C@@H](O)C(=O)NC1CCCCCCCCCCC1 [Example 15, dicyclododecyl D-glucaramide]
